Laboratory results reported in ChEMBL document CHEMBL3885881, “DrugMatrix”.

Organism: Rattus norvegicus
Test: DrugMatrix - Regimen: Daily Repeat
Assay type: toxicity, organism-based, Sprague-Dawley
Design: regimen Daily Repeat, gender Male, age 6-8 weeks
Details: in vivo, po, route oral GAVAGE, vehicle 100 % WATER; for ABSOLUTE BASOPHIL / ABSOLUTE EOSINOPHIL / ABSOLUTE LYMPHOCYTE / ABSOLUTE MONOCYTE / ABSOLUTE SEGMENTED NEUTROPHIL / BASOPHIL / EOSINOPHIL / ERYTHROCYTE COUNT / HEMATOCRIT / HEMOGLOBIN / LEUKOCYTE COUNT / LYMPHOCYTE / MEAN CORPUSCULAR HEMOGLOBIN / MEAN CORPUSCULAR HEMOGLOBIN CONCENTRATION / MEAN CORPUSCULAR VOLUME / MONOCYTE / NEUTROPHIL / NUCLEATED RED BLOOD CELLS / PLATELET COUNT: tissue Blood; for ALANINE AMINOTRANSFERASE / ALBUMIN / ALKALINE PHOSPHATASE / ASPARTATE AMINOTRANSFERASE / BLOOD UREA NITROGEN / CARBON DIOXIDE / CHLORIDE / CHOLESTEROL / CREATINE PHOSPHOKINASE / CREATININE / GLUCOSE / LACTATE DEHYDROGENASE / LIPASE / PHOSPHORUS / POTASSIUM / SODIUM / TOTAL BILIRUBIN / TOTAL PROTEIN / URIC ACID: tissue Plasma
[1] = 5 mg/kg, 120 h, dose level Low, time 5 day
[2] = 500 mg/kg, 72 h, dose level High, time 3 day
[3] = 500 mg/kg, 120 h, dose level High, time 5 day

COc1cc2nc(N3CCN(C(=O)C4COc5ccccc5O4)CC3)nc(N)c2cc1OC (centres undefined) [DOXAZOSIN]
ABSOLUTE BASOPHIL [1]: 0 CELLS/uL | ABSOLUTE EOSINOPHIL [1]: 0 CELLS/uL | ABSOLUTE LYMPHOCYTE [1]: 9952.67 CELLS/uL | ABSOLUTE MONOCYTE [1]: 136 CELLS/uL | ABSOLUTE SEGMENTED NEUTROPHIL [1]: 844.67 CELLS/uL | BASOPHIL [1]: 0% | EOSINOPHIL [1]: 0% | ERYTHROCYTE COUNT [1]: 5.87 x10E6/uL | HEMATOCRIT [1]: 36.6% | HEMOGLOBIN [1]: 13.9 G/DL | LEUKOCYTE COUNT [1]: 10.93 x10E3/uL | LYMPHOCYTE [1]: 91% | MEAN CORPUSCULAR HEMOGLOBIN [1]: 23.73 pg | MEAN CORPUSCULAR HEMOGLOBIN CONCENTRATION [1]: 37.97 G/DL | MEAN CORPUSCULAR VOLUME [1]: 62.47 fL | MONOCYTE [1]: 1.33% | NEUTROPHIL [1]: 7.67% | NUCLEATED RED BLOOD CELLS [1]: 0 /100WBC | PLATELET COUNT [1]: 1169.67 x10E3/uL | ALANINE AMINOTRANSFERASE [1]: 54.67 u/L | ALBUMIN [1]: 4.07 G/DL | ALKALINE PHOSPHATASE [1]: 345.67 u/L | ASPARTATE AMINOTRANSFERASE [1]: 85.33 u/L | BLOOD UREA NITROGEN [1]: 17.67 mg/dL | CARBON DIOXIDE [1]: 33 mmol/L | CHLORIDE [1]: 101.67 MEQ/L | CHOLESTEROL [1]: 70.33 mg/dL | CREATINE PHOSPHOKINASE [1]: 283.33 u/L | CREATININE [1]: 0.19 mg/dL | GLUCOSE [1]: 123 mg/dL | LACTATE DEHYDROGENASE [1]: 105 u/L | LIPASE [1]: 11.33 u/L | PHOSPHORUS [1]: 11.23 mg/dL | POTASSIUM [1]: 6.38 MEQ/L | SODIUM [1]: 145.93 MEQ/L | TOTAL BILIRUBIN [1]: 0.17 mg/dL | TOTAL PROTEIN [1]: 6.07 G/DL | URIC ACID [1]: 1.13 mg/dL | ABSOLUTE BASOPHIL [2]: 0 CELLS/uL | ABSOLUTE EOSINOPHIL [2]: 73 CELLS/uL | ABSOLUTE LYMPHOCYTE [2]: 6631.33 CELLS/uL | ABSOLUTE MONOCYTE [2]: 53.67 CELLS/uL | ABSOLUTE SEGMENTED NEUTROPHIL [2]: 808.67 CELLS/uL | BASOPHIL [2]: 0% | EOSINOPHIL [2]: 1.33% | ERYTHROCYTE COUNT [2]: 5.62 x10E6/uL | HEMATOCRIT [2]: 34.87% | HEMOGLOBIN [2]: 13.47 G/DL | LEUKOCYTE COUNT [2]: 7.57 x10E3/uL | LYMPHOCYTE [2]: 85.33% | MEAN CORPUSCULAR HEMOGLOBIN [2]: 23.97 pg | MEAN CORPUSCULAR HEMOGLOBIN CONCENTRATION [2]: 38.63 G/DL | MEAN CORPUSCULAR VOLUME [2]: 62.07 fL | MONOCYTE [2]: 1% | NEUTROPHIL [2]: 12.33% | NUCLEATED RED BLOOD CELLS [2]: 0 /100WBC | PLATELET COUNT [2]: 1290.67 x10E3/uL | ALANINE AMINOTRANSFERASE [2]: 66 u/L | ALBUMIN [2]: 4.03 G/DL | ALKALINE PHOSPHATASE [2]: 327 u/L | ASPARTATE AMINOTRANSFERASE [2]: 79 u/L | BLOOD UREA NITROGEN [2]: 14.33 mg/dL | CARBON DIOXIDE [2]: 29.67 mmol/L | CHLORIDE [2]: 100.33 MEQ/L | CHOLESTEROL [2]: 97.33 mg/dL | CREATINE PHOSPHOKINASE [2]: 248 u/L | CREATININE [2]: 0.21 mg/dL | GLUCOSE [2]: 140.67 mg/dL | LACTATE DEHYDROGENASE [2]: 232.33 u/L | LIPASE [2]: 10.33 u/L | PHOSPHORUS [2]: 10.53 mg/dL | POTASSIUM [2]: 5.08 MEQ/L | SODIUM [2]: 143.17 MEQ/L | TOTAL BILIRUBIN [2]: 0.37 mg/dL | TOTAL PROTEIN [2]: 6.17 G/DL | URIC ACID [2]: 0.67 mg/dL | ABSOLUTE BASOPHIL [3]: 0 CELLS/uL | ABSOLUTE EOSINOPHIL [3]: 121 CELLS/uL | ABSOLUTE LYMPHOCYTE [3]: 10491.67 CELLS/uL | ABSOLUTE MONOCYTE [3]: 80.67 CELLS/uL | ABSOLUTE SEGMENTED NEUTROPHIL [3]: 940 CELLS/uL | BASOPHIL [3]: 0% | EOSINOPHIL [3]: 1% | ERYTHROCYTE COUNT [3]: 5.32 x10E6/uL | HEMATOCRIT [3]: 33.53% | HEMOGLOBIN [3]: 13.03 G/DL | LEUKOCYTE COUNT [3]: 11.63 x10E3/uL | LYMPHOCYTE [3]: 90.33% | MEAN CORPUSCULAR HEMOGLOBIN [3]: 24.5 pg | MEAN CORPUSCULAR HEMOGLOBIN CONCENTRATION [3]: 38.93 G/DL | MEAN CORPUSCULAR VOLUME [3]: 62.93 fL | MONOCYTE [3]: 0.67% | NEUTROPHIL [3]: 8% | NUCLEATED RED BLOOD CELLS [3]: 0.33 /100WBC | PLATELET COUNT [3]: 350.67 x10E3/uL | ALANINE AMINOTRANSFERASE [3]: 64 u/L | ALBUMIN [3]: 3.8 G/DL | ALKALINE PHOSPHATASE [3]: 343 u/L | ASPARTATE AMINOTRANSFERASE [3]: 99.33 u/L | BLOOD UREA NITROGEN [3]: 18.33 mg/dL | CARBON DIOXIDE [3]: 30.67 mmol/L | CHLORIDE [3]: 102 MEQ/L | CHOLESTEROL [3]: 54.67 mg/dL | CREATINE PHOSPHOKINASE [3]: 485.67 u/L | CREATININE [3]: 0.29 mg/dL | GLUCOSE [3]: 141.33 mg/dL | LACTATE DEHYDROGENASE [3]: 106.67 u/L | LIPASE [3]: 9.67 u/L | PHOSPHORUS [3]: 10.73 mg/dL | POTASSIUM [3]: 5.43 MEQ/L | SODIUM [3]: 145.97 MEQ/L | TOTAL BILIRUBIN [3]: 0.2 mg/dL | TOTAL PROTEIN [3]: 5.37 G/DL | URIC ACID [3]: 0.83 mg/dL
